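Protocol summary: plate cells (96-well), add compound at 5 concentrations, incubate 48 h, interpolate endpoints linearly. Abbreviation: GI50, concentration required for 50% inhibition of growth.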 Calls of active or inactive are those of the source. No stated cut-off is given here; in the data, active = GI50 up to about 1.1 µM and inactive = higher.
Tests used:
Assay in all cases: inhibition of tumour cell growth, NCI panel, 48 h
[1] = test system: CAKI-1
[2] = test system: DU-145
[3] = test system: EKVX
[4] = test system: HCC 2998
[5] = test system: HCT-116
[6] = test system: MCF7
[7] = test system: MDA-MB-435
[8] = test system: NCI-H226
[9] = test system: NCI-H23
[10] = test system: NCI-H460
[11] = test system: PC-3
[12] = test system: RXF 393
[13] = test system: SN12C
[14] = test system: SNB-19
[15] = test system: T47D
[16] = test system: UACC-62
[17] = test system: HL-60
[18] = test system: SF-539
[19] = test system: SK-MEL-28

Row | Structure (SMILES) | GI50 [1] | GI50 [2] | GI50 [3] | GI50 [4] | GI50 [5] | GI50 [6] | GI50 [7] | GI50 [8] | GI50 [9] | GI50 [10] | GI50 [11] | GI50 [12] | GI50 [13] | GI50 [14] | GI50 [15] | GI50 [16] | GI50 [17] | GI50 [18] | GI50 [19]
1 | CC(=O)OCC(OC(C)=O)C(OC(C)=O)C(OC(C)=O)C(C=NN(C(C)=O)S(=O)(=O)c1ccc(/C=C2\NC(=O)NC2=O)cc1)OC(C)=O (stereo not drawn) | > 100 µM (inactive) | > 100 µM (inactive) | > 100 µM (inactive) | > 100 µM (inactive) | > 100 µM (inactive) | > 100 µM (inactive) | > 100 µM (inactive) | > 100 µM (inactive) | > 100 µM (inactive) | > 100 µM (inactive) | > 100 µM (inactive) | > 100 µM (inactive) | > 100 µM (inactive) | > 100 µM (inactive) | > 100 µM (inactive) | > 100 µM (inactive) |  |  | 
2 | Cc1nnc2sc(Cc3cnc(N)s3)nn12 |  | > 100 µM (inactive) | > 100 µM (inactive) | > 100 µM (inactive) | > 100 µM (inactive) | > 100 µM (inactive) |  | 77.6 µM (inactive) | > 100 µM (inactive) | > 100 µM (inactive) | > 100 µM (inactive) | > 100 µM (inactive) | > 100 µM (inactive) | > 100 µM (inactive) | > 100 µM (inactive) | > 100 µM (inactive) | > 100 µM (inactive) | > 100 µM (inactive) | > 100 µM (inactive)
3 | O=C1/C(=C\c2ccc(Cl)cc2Cl)Sc2scc(-c3ccc(O)c(O)c3)[n+]21 | 20.1 µM (inactive) | 18.3 µM (inactive) | 19.9 µM (inactive) | 17 µM (inactive) | 14.5 µM (inactive) | 16.2 µM (inactive) | 12.2 µM (inactive) | 15.5 µM (inactive) | 11.6 µM (inactive) | 16 µM (inactive) | 13.7 µM (inactive) | 12.4 µM (inactive) | 15.9 µM (inactive) | 17.6 µM (inactive) |  | 7.36 µM (inactive) | 8.77 µM (inactive) | 17.1 µM (inactive) | 15.9 µM (inactive)
4 | COc1ccc(N2C(=O)c3cc([N+](=O)[O-])cnc3S2(=O)=O)cc1 |  | > 100 µM (inactive) | > 100 µM (inactive) | > 100 µM (inactive) | > 100 µM (inactive) |  | > 100 µM (inactive) | > 100 µM (inactive) | > 100 µM (inactive) | > 100 µM (inactive) | > 100 µM (inactive) | > 100 µM (inactive) | > 100 µM (inactive) | > 100 µM (inactive) |  | > 100 µM (inactive) | > 100 µM (inactive) |  | > 100 µM (inactive)
5 | C(=N\c1nc2cc3sc(/N=C/c4ccccc4)nc3cc2s1)/c1ccccc1 | > 79.4 µM (inactive) | > 66.5 µM (inactive) | 37.7 µM (inactive) | 29.9 µM (inactive) | 44 µM (inactive) | 20.8 µM (inactive) | > 100 µM (inactive) | 20.7 µM (inactive) | 39 µM (inactive) | 7.52 µM (inactive) | 98.4 µM (inactive) | > 100 µM (inactive) | 69.3 µM (inactive) | > 100 µM (inactive) | > 67.9 µM (inactive) | 72.9 µM (inactive) |  | 32.5 µM (inactive) | > 100 µM (inactive)
6 | CCN(CC)C(=S)SS(=O)(=O)c1ccccc1C(=O)O | > 78 µM (inactive) | > 100 µM (inactive) | > 100 µM (inactive) | > 100 µM (inactive) | > 96.6 µM (inactive) | 1.03 µM (active) | > 100 µM (inactive) | > 46.7 µM (inactive) | > 100 µM (inactive) | > 20 µM (inactive) | > 100 µM (inactive) | > 70.3 µM (inactive) | > 94.8 µM (inactive) | > 94.2 µM (inactive) | > 36 µM (inactive) | 66.4 µM (inactive) |  | > 100 µM (inactive) | > 100 µM (inactive)
7 | Cc1cc(C)c2c(c1)C(=O)/C(=C/c1ccccc1C(=O)O)C2 | > 100 µM (inactive) | > 100 µM (inactive) | 29.1 µM (inactive) | 51.3 µM (inactive) | 63 µM (inactive) | 88.7 µM (inactive) |  | 30.9 µM (inactive) |  | 58.5 µM (inactive) | 43.2 µM (inactive) | 38.7 µM (inactive) | 53.8 µM (inactive) | 50.1 µM (inactive) | 39 µM (inactive) | 89.5 µM (inactive) | 57.7 µM (inactive) | 25.9 µM (inactive) | > 100 µM (inactive)
8 | Cc1cccc2oc3c(CC(=O)O)cccc3c(=O)c12 | > 100 µM (inactive) | > 100 µM (inactive) | > 100 µM (inactive) | 20.5 µM (inactive) | > 100 µM (inactive) | > 100 µM (inactive) | > 100 µM (inactive) | > 100 µM (inactive) | > 100 µM (inactive) | > 100 µM (inactive) | > 100 µM (inactive) |  | > 100 µM (inactive) | > 100 µM (inactive) |  |  | > 100 µM (inactive) | > 100 µM (inactive) | > 100 µM (inactive)
9 | [N-]=[N+]=Nc1cc(=O)[nH]c2ccccc12 | > 100 µM (inactive) |  | 4.98 µM (inactive) |  | > 100 µM (inactive) | 52 µM (inactive) | > 100 µM (inactive) | 45.9 µM (inactive) | > 100 µM (inactive) |  | 39.4 µM (inactive) | > 100 µM (inactive) | > 100 µM (inactive) | > 100 µM (inactive) | 64.9 µM (inactive) | 44.2 µM (inactive) |  | > 100 µM (inactive) | > 100 µM (inactive)
10 | CC(C)=C[C@H]1CCC2(OCCO2)[C@]1(C)COCc1ccccc1 | 32 µM (inactive) |  | 33 µM (inactive) | 16.4 µM (inactive) | 29.9 µM (inactive) | 41.3 µM (inactive) | 26.4 µM (inactive) | 14.1 µM (inactive) | 25.8 µM (inactive) | 22.3 µM (inactive) | 39.9 µM (inactive) | 5.98 µM (inactive) | 24.5 µM (inactive) | 37.7 µM (inactive) | 35.2 µM (inactive) |  |  | 21.7 µM (inactive) | 60.5 µM (inactive)
11 | C/C(=N\Nc1nc2ccccc2n1C)c1ccncn1 | < 0.01 µM (active) |  | < 0.02 µM (active) | 3.39 µM (inactive) | < 0.01 µM (active) | 0.0206 µM (active) | 0.362 µM (active) | 0.29 µM (active) | 0.0402 µM (active) | 0.23 µM (active) |  | 1.55 µM (inactive) | 0.0243 µM (active) | 0.65 µM (active) | < 0.0501 µM (active) | 0.125 µM (active) | < 0.01 µM (active) | 0.313 µM (active) | 0.0378 µM (active)
12 | CN(CCSCCN(C)C(=O)OC(C)(C)C)C(=O)OC(C)(C)C | > 100 µM (inactive) | > 100 µM (inactive) | > 100 µM (inactive) | > 100 µM (inactive) | > 100 µM (inactive) | > 100 µM (inactive) | > 100 µM (inactive) |  | > 100 µM (inactive) | > 100 µM (inactive) | > 100 µM (inactive) |  | > 100 µM (inactive) | > 100 µM (inactive) |  | > 100 µM (inactive) |  | > 100 µM (inactive) | > 100 µM (inactive)
13 | CC(C)(C)c1c(C(C)(C)C)c(=O)c1=O | > 100 µM (inactive) | > 100 µM (inactive) | > 100 µM (inactive) | > 100 µM (inactive) | > 100 µM (inactive) | > 100 µM (inactive) | > 100 µM (inactive) | > 100 µM (inactive) | > 100 µM (inactive) | > 100 µM (inactive) | > 100 µM (inactive) | > 100 µM (inactive) | > 100 µM (inactive) | > 100 µM (inactive) |  | > 100 µM (inactive) | > 100 µM (inactive) | > 100 µM (inactive) | > 100 µM (inactive)
14 | O=C1CCCCC1=C(I)I |  | 19.7 µM (inactive) | 1.88 µM (inactive) | 15.8 µM (inactive) | 16.6 µM (inactive) |  | 19.1 µM (inactive) | 19.7 µM (inactive) |  | 21.4 µM (inactive) | 16.5 µM (inactive) | 16.2 µM (inactive) | 23.7 µM (inactive) | 12.1 µM (inactive) | 15 µM (inactive) | 17.1 µM (inactive) | 4.49 µM (inactive) | 19.5 µM (inactive) | 17 µM (inactive)
15 | COc1cc(/C=C2/SC(c3ccccc3)N(Cc3ccccc3)C2=O)cc(OC)c1OC (stereo not drawn) | > 100 µM (inactive) | 42.7 µM (inactive) | 42.9 µM (inactive) | 80.5 µM (inactive) | 14.9 µM (inactive) | 30.3 µM (inactive) | 53.2 µM (inactive) | 53.7 µM (inactive) | 31.6 µM (inactive) | 38.2 µM (inactive) |  | 7.14 µM (inactive) | 21.5 µM (inactive) | > 100 µM (inactive) | 27.2 µM (inactive) | 42.5 µM (inactive) |  |  | 47.1 µM (inactive)
16 | COc1cc(C(C#N)NNc2nc(C)cc(O)n2)cc(OC)c1OC (stereo not drawn) | > 100 µM (inactive) |  |  |  | > 100 µM (inactive) |  |  | > 100 µM (inactive) | > 100 µM (inactive) | > 100 µM (inactive) |  | > 100 µM (inactive) | > 100 µM (inactive) |  |  | > 100 µM (inactive) | > 100 µM (inactive) | > 100 µM (inactive) | > 100 µM (inactive)
17 | Cc1ccc2c(c1)-c1nc(N)c(C#N)c(-c3ccccc3)c1CCS2(=O)=O | 49.3 µM (inactive) | 65.2 µM (inactive) |  | > 100 µM (inactive) | > 100 µM (inactive) |  | > 100 µM (inactive) | 24.3 µM (inactive) | 87.9 µM (inactive) | 75.2 µM (inactive) | 49.2 µM (inactive) |  | 41.4 µM (inactive) | 23.6 µM (inactive) | > 100 µM (inactive) | 49.7 µM (inactive) |  |  | > 100 µM (inactive)
